This is an account of results in PMC9739180, “Discovery of a Flavonoid FM04 as a Potent Inhibitor to Reverse P-Glycoprotein-Mediated Drug Resistance in Xenografts and Improve Oral Bioavailability of Paclitaxel” (International Journal of Molecular Sciences, 2022).

Series [1] relates to human melanoma MDA435/LCC6MDR xenograft. In words: In vivo efficacy in human melanoma MDA435/LCC6MDR xenograft. Further details: species or system Balb/c nude mice. The procedure: The treatment was given every other day for 12 times (q2d × 12) from day 0 to day 22. There were four treatment groups including (1) control: no treatment, (2) PTX alone (12 mg/kg, I.V.), (3) PTX alone (24 mg/kg, I.V.) and (4) combination treatment: FM04 (28 mg/kg, I.P.,−1 h) + PTX (12 mg/kg, I.V.).
Balb/c nude mice were subcutaneously xenografted with LCC6MDR. The treatment groups included (1) control—no treatment, (2) PTX (12 mg/kg, I.V.) alone, (3) PTX (24 mg/kg, I.V.) alone and (4) co-treatment: FM04 (28 mg/kg, I.P.) was injected 1 hr prior to PTX (12 mg/kg, I.V.). (A) tumor volume and (B) body weight were monitored throughout the treatment. The treatment was given to mice every other day for 12 times (q2d × 12) and indicated as an arrow. […] (C) Tumor-inhibition % on day 34 and tumor-doubling time after each treatment were determined. Number of animal deaths was monitored during the treatment. For the tumor volume at each time point, statistical analysis was conducted by one-way-ANOVA between co-treatment group and PTX alone treatment, * p < 0.05. /: not applicable.
The LCC6MDR tumor xenograft model was studied previously in [24]. Female Balb/c nude mice (4–6 week-old) were subcutaneously inoculated with 5 × 10^7cells of P-gp overexpressing LCC6MDR and allowed to develop tumor. Treatment began when a solid tumor of 150–200 mm^3 was formed. Tumor-bearing mice were randomized into four groups with 7–8 mice in each group: (1) control group—no treatment, (2) PTX alone (12 mg/kg, I.V.), (3) PTX alone (24 mg/kg, I.V.) and (4) co-treatment: FM04 (28 mg/kg, I.P.) was injected 1 hr before PTX (12 mg/kg, I.V.) administration. Tumor growth was measured by an electronic caliper on the injection day and the tumor volume was calculated using the following formula: Estimated tumor volume (mm^3)=l×w^2/2

Series [2] relates to CYP2C8 and CYP3A4. In words: PTX metabolism in human liver microsomes: PTX level. The class given is in vitro ADME. As to conditions: HLM; in the presence of NADPH, no inhibitor. The protocol:
Figure 7 Mechanistic study of FM04 to increase the oral PTX absorption. (A) transepithelial permeability of PTX in Caco-2 transwell assay. When confluent monolayer of Caco2 cells was formed on the transwell, the permeability of PTX (10 μM) was studied with or without FM04 (10 μM). For apical to basolateral transport (A to B), compound was added at the apical side (donor) and samples of the medium collected at the basal side (receiver) at 0, 20, 40, 60, 80, 100 and 120 min and vice versa for basal to apical transport (B to A). The PTX level was determined using UPLC-MS/MS. The relative % of PTX was presented as mean ± standard error of mean. N = 2–3 independent experiments. Impact of FM04 on PTX metabolism. […] After incubation, the levels of PTX, metabolites 6α-hydroxpaclitaxel (6α-OHP) and p3′-hydroxpaclitaxel (p3-OHP) were determined by HPLC-MS/MS. (B) changes in PTX. (C) changes in 6α-OHP. (D) changes in p3-OHP. […]
Drug solutions of PTX and FM04 were prepared in methanol. […] PTX and PTX metabolites were immediately analyzed by UPLC-MS/MS on the same day.
[^13C6]-paclitaxel (CAS: 379688-61-6) was the internal standard (IS) and purchased from Alsachim. Fifteen microliters of 10 μg/mL internal standard (IS) was added to all samples and calibration standards for quantification. […] PTX and both metabolites were semi-quantified base on the peak area ratio of the analyte/internal standard.

Turning to `CC(=O)O[C@H]1C(=O)[C@@]2(C)[C@H]([C@H](OC(=O)c3ccccc3)[C@]3(O)C[C@H](OC(=O)[C@H](O)[C@@H](NC(=O)c4ccccc4)c4ccccc4)C(C)=C1C3(C)C)[C@]1(OC(C)=O)CO[C@@H]1C[C@@H]2O` [PTX, paclitaxel], the “Tumor doubling time (Td)” value in series [1] (PTX 12 mg/kg I.V., q2d × 12) was found to be 10 days. In addition, in series [1] (PTX 24 mg/kg I.V.), the “fold reduction in tumor volume” value amounted to 2.5 fold and the weight loss is reported as above 15%. The “No. of animal death” value in series [1] (PTX 24 mg/kg I.V., q2d × 12) is listed as 4 out of 6. In addition, the “reduction of PTX level” value in series [2] was 50%.
